Five compounds from patent US20240358727A1, “MICROSCALE THERMOPHORESIS TO EVALUATE CHANNEL LIPID INTERACTIONS AND METHODS OF TREATING NAV CHANNELS RELATED DISEASES” (Northeastern University, priority 2023, published 2024) can be followed below.

Assay [1] has as its target T1, Nav1.5 channel currents (INa, ILATE) in M3q iPS-CMs (Homo sapiens, UniProt Q14524).
T1 construct: host or cells: human iCell^2 iPS cardiomyocytes (transfected with M3q DREADD in A5; endogenous AT1 receptor in A7)
As to the kind of experiment: Whole-cell patch-clamp of INa and ILATE in M3q-DREADD iPS-CMs activated with CNO. The conditions noted are these: for effect on CNO-evoked increase in ILATE / effect on CNO-evoked leftwards shifts in V½ACT and V½SSI: 200 μM diC8-PIP2 in pipette; for effect on CNO (M3q activation) effects on V½ACT, V½SSI and ILATE: staurosporine 1 μM 1-hour preincubation, BAPTA 10 mM in pipette, U73122 5 μM, diC8-PIP2 200 μM in pipette. In kind it is cell-based. As to the method:
(§1) Control is CNO application to cells with no M3q. Mean±SD % fluorescence change for 20 cells per group; an example photobleaching montage is inset. […] Leftwards shifts in each parameter are precluded by U73122 or by 200 μM diC8-PIP2 in the pipette but are not sensitive to staurosporine or BAPTA. The cells were perfused with an extracellular solution containing (in mM): 130 NaCl, 5 CsCl, 1.2 MgCl2, 1.5 CaCl2), 8 Glucose, 10 HEPES (pH7.4). […] nitrendipine was added to the recording solution to block Ca^2+ flux through Cav channels. Patch pipettes with a resistance of 2.5-4 MQ are filled with a solution containing (in mM): 60 CsCl, 80 CsF, 2 MgCl2, 10 EGTA, 5 Na2ATP, 5 HEPES (pH 7.4). Currents were low pass (Bessel) filtered at 9 kHz and digitized at 50 kHz and were collected from cells with a series resistance <15 MQ; this was compensated by 70%.
Results. Studies are designed to evaluate if hydrolysis of PIP2 modulates Nav1.5 channel currents in cardiomyocytes. To perform these experiments, we used human iPS cardiomyocytes (iCell^2 iPS-CMs) from Fuji-Film Cellular Dynamics. These iPS-CMs are a valuable model system for human cardiomyocytes that retain many of the key characteristics of the native cells. Here, we transfected the iPS-CMs to express the Gαq-coupled M3q Designer Receptors Exclusively Activated by Designer Drugs (DREADD) receptor. We use a magnetic transfection system from Oz Biosciences that we have previously employed with cardiomyocytes. First, we tested the efficacy of M3q to hydrolyze PIP2 in our model system. To accomplish this, we studied uncoupling of the PIP2 biosensor iRFP-PHPLCδ1 from the plasma membrane in response to chemogenic activation of M3q by 100 nM clozapine N-oxide (CNO, Tocris Biosciences).
These findings are consistent with our prior observations and the work using optogenetically activated PI-phosphatases to deplete PIP2 in HEK293 cells […] Xenopus laevis oocytes. […] Having established a time frame for PIP2 hydrolysis in our system, we used whole-cell patch-clamp to study INa in paired experiments, before and after chemogenic activation of M3q. Applying 100 nM CNO evoked a leftward shift in the current-voltage (I-V) relationship of INa such that peak INa shifted from −25 to −35 mV. At −35 mV, the peak current-density increased from −220±5 pA/pF to −266±4 pA/pF at −35 mV (n=8, P<0.001, paired Student's t-test). […] However, in contrast to our findings with Nav1.4, activating M3q signaling also left-shifted the steady state inactivation curve of Nav1.5 (V½SSI), from −81.4±2 to −89.7±2 mV (n=8, P<0.01, paired t-test; FIGS. 2C, 2D). These studies indicate that Nav1.5 channels are regulated by hydrolysis of PIP2 and that there are distinctions between PIP2 regulation of Nav1.5 and Nav1.4.
Next, we studied the effect of M3q-activation on ILATE by recording currents evoked by a 400 ms depolarizing pulse to −20 mV before and during receptor activation. The magnitude of ILATE represents the mean current 150-200 ms after peak INa and is expressed as a percentage of peak INa. […] The effects of M3q activation on V½ACT, V½SSI, and the development of ILATE were not affected by staurosporine (1 μM, 1-hour preincubation) or BAPTA (10 mM in the recording pipette), making a role for IP3 or DAG unlikely. […] Similar data were obtained for Nav1.5 expressed with Navβ1 and the M3q-DREADD receptor in HEK293T cells. This experiment validates that the findings are not restricted to a particular model system or cellular environment.
Measure modulation in INa and ILATE by endogenous Gαq signaling. Like native cardiomyocytes, human iPS-CMs express AT1 receptors. Here, the effects of Ang II (Tocris) on Nav1.5 channel function in iPS-CMs is tested using four whole-cell patch-clamp recording protocols. […]

Assay [2] has as its system PIP2 hydrolysis (iRFP-PHPLCδ1 biosensor). As to the kind of experiment: TIRFM uncoupling of PIP2 biosensor iRFP-PHPLCδ1 from the membrane of M3q iPS-CMs. The class given is cell-based, human. The conditions noted are these: 100 nM CNO. As for the experimental part:
as §1
Results. Studies are designed to evaluate if hydrolysis of PIP2 modulates Nav1.5 channel currents in cardiomyocytes. To perform these experiments, we used human iPS cardiomyocytes (iCell^2 iPS-CMs) from Fuji-Film Cellular Dynamics. These iPS-CMs are a valuable model system for human cardiomyocytes that retain many of the key characteristics of the native cells. Here, we transfected the iPS-CMs to express the Gαq-coupled M3q Designer Receptors Exclusively Activated by Designer Drugs (DREADD) receptor. […]

The test system of assay [3] is Nav1.5 channel currents (INa, ILATE) in iPS-CMs. As to the kind of experiment: Whole-cell patch-clamp of INa and ILATE in iPS-CMs treated with Ang II. In kind it is cell-based, human. The conditions noted are these: 100 nM Ang II. As to the method:
Control is CNO application to cells with no M3q. Mean±SD % fluorescence change for 20 cells per group; an example photobleaching montage is inset. […] The cells were perfused with an extracellular solution containing (in mM): 130 NaCl, 5 CsCl, 1.2 MgCl2, 1.5 CaCl2), 8 Glucose, 10 HEPES (pH7.4). […] nitrendipine was added to the recording solution to block Ca^2+ flux through Cav channels. Patch pipettes with a resistance of 2.5-4 MQ are filled with a solution containing (in mM): 60 CsCl, 80 CsF, 2 MgCl2, 10 EGTA, 5 Na2ATP, 5 HEPES (pH 7.4). Currents were low pass (Bessel) filtered at 9 kHz and digitized at 50 kHz and were collected from cells with a series resistance <15 MQ; this was compensated by 70%.
The data are mean±sem for 4 cells per experiment.
Measure modulation in INa and ILATE by endogenous Gαq signaling. Like native cardiomyocytes, human iPS-CMs express AT1 receptors. Here, the effects of Ang II (Tocris) on Nav1.5 channel function in iPS-CMs is tested using four whole-cell patch-clamp recording protocols. Recording solutions and amplifier settings are described in the legend of FIG. 2: • i) I-V (and G-V): The current-voltage (I-V) relationship reports on current-density across the physiological voltage range and provides a conductance voltage (G-V) relationship that is normalized and fitted with a Boltzmann function to illustrate the voltage-dependence of activation, V½ACT. • ii) SSI: a paired-pulse protocol to determine the voltage-dependence of steady-state inactivation (SSI). The prepulse is incrementally depolarized while the test-pulse remains at a fixed amplitude. […] This parameter is studied using paired steps to −30 mV and incrementally increasing the duration between the pulses. • iv) ILATE is studied using 400 ms depolarizing pulses to −20 mV. The pulse is repeated every 10 seconds for the duration of a time-course study. Subsequently, the cell is exposed to the state-dependent, late-current blocker ranolazine at 1 μM, as previously described. The magnitude of ILATE represents the mean current 150-200 ms after peak INa and is expressed as a percentage of peak INa, following ranolazine subtraction. The time course of a change in ILATE and the change in the time constant of fast inactivation are evaluated.
In each case, Nav1.5 currents is studied before and after the administration of Ang II. […] Next, we study the concentration-dependence of these effects, spanning the pathophysiological range (20-200 nM). Utilizing a non-saturating concentration of Ang II, we introduce pharmacological tools to determine the effects on Nav1.5 function attributable to PIP2 hydrolysis. […] Subsequently, we block PIP2 hydrolysis using the PLCβ inhibitor, U73122 (5 μM, Tocris Biosciences). […] We test if downstream products of PIP2 hydrolysis alter Nav1.5 currents using the PKC inhibitor staurosporine (1 μM, 1-hour preincubation, Sigma-Aldrich) and the Ca^2+ chelator, BAPTA (10 mM in the pipette, Sigma-Aldrich).

Entries after “also recorded” stand apart in the source; their conditions may differ.

T1 sequence (Q14524 whole entry): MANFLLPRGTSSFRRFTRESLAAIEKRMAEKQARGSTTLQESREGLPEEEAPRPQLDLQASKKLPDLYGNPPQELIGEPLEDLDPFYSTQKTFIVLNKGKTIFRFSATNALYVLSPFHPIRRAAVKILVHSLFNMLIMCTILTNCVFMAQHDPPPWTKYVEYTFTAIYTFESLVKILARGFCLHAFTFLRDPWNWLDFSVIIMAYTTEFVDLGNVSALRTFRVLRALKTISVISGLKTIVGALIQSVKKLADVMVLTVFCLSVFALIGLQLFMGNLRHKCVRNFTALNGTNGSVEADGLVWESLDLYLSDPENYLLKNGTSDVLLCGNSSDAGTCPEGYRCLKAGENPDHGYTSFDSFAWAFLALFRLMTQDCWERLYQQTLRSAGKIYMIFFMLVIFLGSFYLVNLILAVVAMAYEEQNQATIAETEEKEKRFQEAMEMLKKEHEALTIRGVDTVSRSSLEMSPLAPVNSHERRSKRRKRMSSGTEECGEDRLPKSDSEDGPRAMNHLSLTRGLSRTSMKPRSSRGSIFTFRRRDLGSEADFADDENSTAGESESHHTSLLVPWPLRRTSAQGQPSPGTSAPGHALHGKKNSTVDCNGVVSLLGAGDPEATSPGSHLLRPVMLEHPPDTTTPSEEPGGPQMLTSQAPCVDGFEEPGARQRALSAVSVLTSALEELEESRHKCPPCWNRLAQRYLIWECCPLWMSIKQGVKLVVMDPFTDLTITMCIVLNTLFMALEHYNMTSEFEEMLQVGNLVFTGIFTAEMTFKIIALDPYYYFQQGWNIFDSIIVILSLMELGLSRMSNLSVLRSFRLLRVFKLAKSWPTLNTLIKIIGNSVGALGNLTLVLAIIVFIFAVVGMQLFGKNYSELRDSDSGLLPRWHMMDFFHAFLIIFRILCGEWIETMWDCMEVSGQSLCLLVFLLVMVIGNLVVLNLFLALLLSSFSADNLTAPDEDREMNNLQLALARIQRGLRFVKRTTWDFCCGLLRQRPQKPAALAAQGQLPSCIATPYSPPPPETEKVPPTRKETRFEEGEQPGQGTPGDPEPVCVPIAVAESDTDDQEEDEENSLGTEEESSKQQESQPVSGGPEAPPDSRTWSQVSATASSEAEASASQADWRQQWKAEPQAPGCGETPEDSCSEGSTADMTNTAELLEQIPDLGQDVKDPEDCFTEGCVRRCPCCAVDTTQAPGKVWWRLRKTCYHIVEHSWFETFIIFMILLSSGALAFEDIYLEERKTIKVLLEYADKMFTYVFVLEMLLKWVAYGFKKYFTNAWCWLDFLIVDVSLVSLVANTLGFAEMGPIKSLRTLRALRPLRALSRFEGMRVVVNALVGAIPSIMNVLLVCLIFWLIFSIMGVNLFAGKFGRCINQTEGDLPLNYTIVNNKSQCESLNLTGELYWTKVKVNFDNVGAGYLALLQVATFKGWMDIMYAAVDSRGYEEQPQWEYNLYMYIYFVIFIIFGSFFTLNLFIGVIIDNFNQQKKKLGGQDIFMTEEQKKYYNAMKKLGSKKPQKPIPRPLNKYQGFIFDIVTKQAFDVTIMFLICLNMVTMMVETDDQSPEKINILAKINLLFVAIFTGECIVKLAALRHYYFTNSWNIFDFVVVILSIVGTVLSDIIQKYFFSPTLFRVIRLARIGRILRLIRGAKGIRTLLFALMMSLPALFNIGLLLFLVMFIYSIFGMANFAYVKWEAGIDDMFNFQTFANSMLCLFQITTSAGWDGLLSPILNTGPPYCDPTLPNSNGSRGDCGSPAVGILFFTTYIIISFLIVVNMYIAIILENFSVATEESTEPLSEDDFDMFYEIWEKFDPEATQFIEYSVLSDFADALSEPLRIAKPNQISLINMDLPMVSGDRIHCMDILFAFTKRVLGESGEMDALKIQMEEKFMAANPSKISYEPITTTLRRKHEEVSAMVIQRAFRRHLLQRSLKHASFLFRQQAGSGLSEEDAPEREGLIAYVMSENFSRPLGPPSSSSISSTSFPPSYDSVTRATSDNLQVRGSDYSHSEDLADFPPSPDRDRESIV

With `O=C(O)CN(CC(=O)O)c1ccccc1OCCOc1ccccc1N(CC(=O)O)CC(=O)O` [BAPTA], in assay [1] (100 nM CNO), the “effect on CNO-evoked increase in ILATE” value is given as “not sensitive”; the “effect on CNO-evoked leftwards shifts in V½ACT and V½SSI” value (“effect on CNO-evoked leftwards shifts” below) is given as “not sensitive”; the “effect on CNO (M3q activation) effects on V½ACT, V½SSI and ILATE” value (shortened to “effect on CNO (M3q activation) effects”) is listed as “not affected; also recorded: not blocked”.
In the case of `C[N+]1([O-])CCN(C2=Nc3cc(Cl)ccc3Nc3ccccc32)CC1` [CNO, clozapine N-oxide], the “fold increase in ILATE” value in assay [1] (100 nM CNO vs control) is on record as 16 fold. Further, the ILATE in assay [1] (100 nM CNO, 400 ms pulse to −20 mV, control 0.22%) is on record as ~3.9 % of peak INa. The peak current-density in assay [1] (100 nM CNO, at −35 mV, before −220±5) was −266±4 pA/pF. Moreover, in assay [1] (100 nM CNO, paired before/after), the “leftward shift in V½ACT” value is −10±5 mV. Further, the “voltage of peak INa (I-V relationship)” value in assay [1] (100 nM CNO, before CNO −25 mV) was −35 mV. In assay [1] (100 nM CNO, before −81.4±2), this compound yielded a V½SSI of −89.7±2 mV. For the same compound, the “time to complete uncoupling of iRFP-PHPLCδ1 from the membrane” value in assay [2] is listed as at most 200 s.
For the compound `COc1ccc2c(c1)CC[C@@H]1[C@@H]2CC[C@]2(C)[C@@H](NCCCCCCN3C(=O)C=CC3=O)CC[C@@H]12` [U73122], in assay [1] (100 nM CNO), the “effect on CNO-evoked increase in ILATE” value is recorded as “precluded”; the “effect on CNO-evoked leftwards shifts” value is recorded as “precluded”; the “effect on CNO (M3q activation) effects” value is given as “blocked; also recorded: abolished”. Besides, the “uncoupling of iRFP-PHPLCδ1 after M3q activation” value in assay [2] (U73122 5 μM) was “does not occur”.
With `CN[C@@H]1C[C@H]2O[C@@](C)([C@@H]1OC)n1c3ccccc3c3c4c(c5c6ccccc6n2c5c31)C(=O)NC4` [staurosporine], in assay [1] (100 nM CNO), the “effect on CNO-evoked increase in ILATE” value is given as “not sensitive”; the “effect on CNO-evoked leftwards shifts” value is “not sensitive”; the “effect on CNO (M3q activation) effects” value is “not affected; also recorded: not blocked”.
Regarding “angiotensin II (DRVYIHPF; Angiotensin-2; UniProt P01019 25-32, looked up) [Ang II, agonist of the Gαq-coupled AT1 receptor (Tocris)]”, in assay [3], the “leftward shift in V½ACT” value is −7 mV, the “leftward shift in V½SSI” value is −7 mV, the “peak INa” value is reported as “increased; also recorded: elevated” and the “time over which ILATE increased” value was about 250 s. Also, in assay [3] (before 0.15±0.1), the ILATE is 3.6±0.3 % of IPEAK.
